ChEMBL document CHEMBL1137883, “Synthesis and vasorelaxant properties of hybrid molecules out of NO-donors and the beta-receptor blocking drug propranolol” (2004)

What was measured:
Sus scrofa [1] = species: Sus scrofa; assay: Concentration required for relaxation of PGF2-alpha (3 uM)-precontracted porcine pulmonary arteries; activity expressed as pD2
Sus scrofa [2] = species: Sus scrofa; assay: Concentration required for relaxation of isolated porcine coronary arteries; activity expressed as pD2; assay type: functional

Row | SMILES | pD2 (Sus scrofa [1]) | pD2 (Sus scrofa [2])
1 | CC(C)(CO[N+](=O)[O-])C(=O)O | 4.69 | 
2 | CC(=O)N[C@@H](C(=O)N(CC(O)COc1cccc2ccccc12)C(C)C)C(C)(C)SN=O (some centres undefined) | 6.94 | 
3 | CC(C)N(CC(O)COc1cccc2ccccc12)C(=O)C(C)(C)CO[N+](=O)[O-] (centres undefined) | 5.4 | 
4 | CC(=O)N[C@@H](C(=O)O)C(C)(C)SN=O |  | 6.69
